From patent US9499553B2 (CHUGAI SEIYAKU KABUSHIKI KAISHA, priority 2013, dated 2016) come the findings set out here.

In general, IC50 refers to the concentration at which inhibition is half-maximal.

The target of one test is T1, human NaPi-IIb (Homo sapiens, UniProt O95436).
T1 construct: expressed in transfected cells
T1 sequence (O95436 1-690): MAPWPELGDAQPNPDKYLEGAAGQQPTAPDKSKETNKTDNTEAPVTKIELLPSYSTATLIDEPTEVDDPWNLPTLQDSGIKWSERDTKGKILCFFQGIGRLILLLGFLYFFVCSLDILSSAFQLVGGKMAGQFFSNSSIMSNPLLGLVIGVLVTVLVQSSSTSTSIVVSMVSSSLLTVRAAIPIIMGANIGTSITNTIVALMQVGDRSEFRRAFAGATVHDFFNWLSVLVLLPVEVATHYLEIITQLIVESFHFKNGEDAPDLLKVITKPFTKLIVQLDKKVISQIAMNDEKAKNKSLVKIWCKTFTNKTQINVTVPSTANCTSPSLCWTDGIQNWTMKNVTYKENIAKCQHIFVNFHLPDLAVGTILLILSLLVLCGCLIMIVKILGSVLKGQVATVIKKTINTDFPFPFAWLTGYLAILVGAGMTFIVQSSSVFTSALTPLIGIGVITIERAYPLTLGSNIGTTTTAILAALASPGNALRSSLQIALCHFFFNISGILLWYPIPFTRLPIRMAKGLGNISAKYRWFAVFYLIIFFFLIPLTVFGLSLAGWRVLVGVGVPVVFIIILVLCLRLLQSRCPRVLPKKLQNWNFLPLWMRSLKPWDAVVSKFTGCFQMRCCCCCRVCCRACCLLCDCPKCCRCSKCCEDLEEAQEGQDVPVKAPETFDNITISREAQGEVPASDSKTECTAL
In words: Inhibitory effect on 33PO4 uptake into human NaPi-IIb-expressing CHO cells. Type of test: cell-based. Conditions: read-out: IC50. Put shortly:
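Stable human NaPi-IIb CHO line (G418-selected), plated and cultured overnight; ³³PO4 added in buffer A and uptake run at room temperature. Cells washed with ice-cold buffer A, then uptake counted by liquid scintillation.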
Regarding `Cc1c(-c2cc(C(F)(F)F)ccc2NC(=O)C2=C(O)C3(CCCCC3)N(C)N(Cc3ccc(OCCN4CCOCC4)c(F)c3F)C2=O)ncnc1C(F)(F)F` [Example 296], the IC50 was 10 µM.

With `COc1cccc(-c2cc(C(F)(F)F)ccc2NC(=O)C2=C(O)[C@@]3(C)CCCN3N(Cc3ccc(C#CCCCO)c(F)c3F)C2=O)c1OC` [Example 138], the concentration for half-maximal inhibition (IC50) was determined as 11.9 µM.

For the compound `Cc1cccc(CN2C(=O)C(C(=O)Nc3ccc(C(F)(F)F)cc3-c3cc(C(F)(F)F)ncn3)=C(O)[C@@]3(C)CCCN23)c1` [Example 186], the concentration for half-maximal inhibition (IC50) was found to be 5.5 µM.

As to `CN1N(Cc2cccc(F)c2F)C(=O)C(C(=O)Nc2cc(C(F)(F)F)ccc2-c2ccc(C(F)(F)F)nc2)=C(O)C1(C)C` [Example 307], the 50% inhibitory concentration (IC50) turned out to be 4.6 µM.

Consider `CN1N(Cc2ccc(OCCN3CCOC(=O)C3)c(F)c2F)C(=O)C(C(=O)Nc2ccc(C(F)(F)F)cc2-c2cc(C(F)(F)F)ncn2)=C(O)C12CCC2` [Example 337, 8-[[2,3-Difluoro-4-[2-(2-oxomorpholin-4-yl)ethoxy]phenyl]methyl]-5-hydroxy-9-methyl-7-oxo-N-[4-(trifluoromethyl)-2-[6-(trifluoromethyl)pyrimidin-4-yl]phenyl]-8,9-diazaspiro[3.5]non-5-ene-6-carboxamide], for which the IC50 turned out to be 17 µM.

On to `C[C@]12CCCN1N(Cc1cccc(C#N)c1)C(=O)C(C(=O)Nc1cc(F)c(Br)c(F)c1)=C2O` [Example 220], for which the half-inhibitory concentration (IC50) is 12.2 µM.

Regarding `CN1N(Cc2ccc(OCCN3CCOCC3)c(F)c2F)C(=O)C(C(=O)Nc2ccc(C(F)(F)F)cc2-c2cc(C(F)(F)F)ncn2)=C(O)C12CCCCC2` [Example 295], the IC50 is 17 µM.

Turning to `C[C@]12CCCN1N(Cc1cccc(F)c1F)C(=O)C(C(=O)Nc1ccc(C(F)(F)F)cc1-c1cc(Cl)cnc1Cl)=C2O` [Example 84], the 50% inhibitory concentration (IC50) stood at 7.9 µM.

Consider `Cc1cccc(CN2C(=O)C(C(=O)Nc3ccc(C(F)(F)F)cc3-c3cc(C(F)(F)F)ncn3)=C(O)[C@@]3(C)CCCN23)c1F` [Example 215], for which the IC50 came to 6.2 µM.

For `C[C@]12CCCN1N(Cc1ccc(CCCCCCC(=O)O)c(F)c1F)C(=O)C(C(=O)Nc1ccc(Cl)cc1-c1ccc(C(F)(F)F)nc1)=C2O` [Example 116, 7-[4-[[(4aR)-3-[[4-Chloro-2-[6-(trifluoromethyl)pyridin-3-yl]phenyl]carbamoyl]-4-hydroxy-4a-methyl-2-oxo-6,7-dihydro-5H-pyrrolo[1,2-b]pyridazin-1-yl]methyl]-2,3-difluorophenyl]heptanoate], the IC50 turned out to be 8.1 µM.

`COc1cccc(-c2cc(C(F)(F)F)ccc2NC(=O)C2=C(O)[C@@]3(C)CCCN3N(Cc3ccc(C#CCCCCO)c(F)c3F)C2=O)c1OC` [Example 135]: the half-maximal inhibitory concentration (IC50) turned out to be 12.3 µM.

As for `C[C@]12CCCN1N(Cc1ccc(Cl)cc1)C(=O)C(C(=O)Nc1ccc(C(F)(F)F)cc1-c1cc(C(F)(F)F)ncn1)=C2O` [Example 182], the IC50 was 5.1 µM.

The test is the same for the next values; noted with them: read-out: IC50 against 33PO4 uptake into human NaPi-IIb-expressing cells.
As to `COCCN1CC[C@@H](Oc2ccc(CN3C(=O)C(C(=O)Nc4ccc(C(F)(F)F)cc4-c4cc(C(F)(F)F)ncn4)=C(O)C4(CCC4)N3C)c(F)c2F)C1` [Example 405, 6-[[2,3-Difluoro-4-[(3R)-1-(2-methoxyethyl)pyrrolidin-3-yl]oxyphenyl]methyl]-9-hydroxy-5-methyl-7-oxo-N-[4-(trifluoromethyl)-2-[6-(trifluoromethyl)pyrimidin-4-yl]phenyl]-5,6-diazaspiro[3.5]non-8-ene-8-carboxamide], the IC50 worked out at 27.7 µM.

As for `CSC1CN(CCOc2ccc(CN3C(=O)C(C(=O)Nc4ccc(C(F)(F)F)cc4-c4cc(C(F)(F)F)ncn4)=C(O)C4(CCC4)N3C)c(F)c2F)C1` [Example 357], the IC50 stood at 21.8 µM.

`CN1N(Cc2ccc(OCCCCCOC[C@H](O)CO)c(F)c2F)C(=O)C(C(=O)Nc2ccc(C(F)(F)F)cc2-c2ccc(C(F)(F)F)nc2)=C(O)C12CCCC2` [Example 388]: the 50% inhibitory concentration (IC50) was found to be 6.9 µM.

As for `CN1N(Cc2ccc(OCCOCCNC(=O)[C@@H](O)[C@H](O)[C@@H](O)[C@@H](O)CO)c(F)c2F)C(=O)C(C(=O)Nc2ccc(C(F)(F)F)cc2-c2cc(C(F)(F)F)ncn2)=C(O)C12CCCC2` [Example 427], the IC50 was found to be 17.4 µM.
